Each block holds one molecule with its values, some of them ahead of it. Activity calls are given as the source filed them. The calls are words filed in the database; no cut-off is given here.
Experiments:
HeLa [1] = experiment: Ratio of ON01910 IC50 to compound IC50 for human HeLa cells; assay type: functional
WI-38 = experiment: Selectivity ratio of IC50 for human WI38 cells to IC50 for ER negative human MDA-MB-231 cells; assay type: functional
HeLa [2] = experiment: Selectivity ratio of IC50 for human WI38 cells to IC50 for human HeLa cells; assay type: functional
MDA-MB-231 = experiment: Ratio of ON01910 IC50 to compound IC50 for ER negative human MDA-MB-231 cells; assay type: functional
MCF7 [3] = experiment: Selectivity ratio of IC50 for human WI38 cells to IC50 for ER positive human MCF7 cells; assay type: functional
A2780 [4] = experiment: Antitumor activity against human A2780 cells xenografted in mouse assessed as delay tumor growth at 50 mg/kg, po administered every second day for 2 weeks; assay type: functional
DU-145 = experiment: Ratio of ON01910 IC50 to compound IC50 for AR negative human DU145 cells; assay type: functional
A2780 [5] = experiment: Induction of apoptosis in human A2780 cells assessed as caspase-3/7 activation at 0.06 uM after 24 hrs by using Apo-ONE homogeneous caspase-3/7 kit; assay type: functional, cell-based
MCF7 [6] = experiment: Ratio of ON01910 IC50 to compound IC50 for ER positive human MCF7 cells; assay type: functional
HCT-116 = experiment: Selectivity ratio of IC50 for human WI38 cells to IC50 for human HCT116 cells; assay type: functional
A2780 [7] = experiment: Selectivity ratio of IC50 for human WI38 cells to IC50 for human A2780 cells; assay type: functional
[8] = AUC (0 to t) in mouse at 10 mg/kg, po after 24 hrs; assay type: ADME, organism-based; set-up: time < 24 hr, dose 10 mg/kg, route oral; conditions: plasma
[9] = Oral bioavailability (0 to t) in mouse at 10 mg/kg after 24 hrs; assay type: ADME, organism-based; conditions: in vivo
A2780 [10] = experiment: Induction of apoptosis in human A2780 cells assessed as caspase-3/7 activation at 1 uM after 24 hrs by using Apo-ONE homogeneous caspase-3/7 kit; assay type: functional, cell-based

SMILES: COc1cc(OC)c(/C=C/S(=O)(=O)Cc2ccc(OC)c(N)n2)c(OC)c1
- Ratio IC50 (HeLa [1]): 10
- Ratio IC50 (WI-38): >1400
- Ratio IC50 (HeLa [2]): >1400
- Ratio IC50 (MDA-MB-231): 10
- Ratio IC50 (MCF7 [3]): >1400
- Activity (A2780 [4]): 52%
- Ratio IC50 (DU-145): 10
- Activity (A2780 [5]): Active
- Ratio IC50 (MCF7 [6]): 10
- Ratio IC50 (HCT-116): >1400
- Ratio IC50 (A2780 [7]): >1400

- AUC(0-t) at 24 h [8]: 5.6 µM·h
- bioavailability [9]: 50%
SMILES: COc1cc(OC)c(/C=C/S(=O)(=O)Cc2ccc(OC)c(NS(C)(=O)=O)n2)c(OC)c1
- Activity (A2780 [10]): Active
